According to US9320734B2, “Small molecule inhibitors of the pleckstrin homology domain and methods for using same” (Board of Regents, The University of Texas System, priority 2008, dated 2016):
In brackets after ≈: the same amount, converted by molar mass. Like-named read-outs stand apart in the source and are kept apart here. Each block holds one molecule with its values, some of them ahead of it.

What was measured:
[1] = test system: MiaPaca-2 pancreatic cell line; assay: Apoptosis, morphological assay, MiaPaCa-2 cells; type: cell-based, human; details: MiaPaca-2, morphological assay
From the text: (§1) AKT inhibition leads to cellular apoptosis.

[2] = test system: phospho-Ser473-AKT in MiaPaCa-2 cells; assay: Cellular AKT inhibition, Western blot phospho-Ser473-AKT, MiaPaCa-2 cells
[3] = test system: Panc-1 pancreatic cell line; assay: Apoptosis, morphological assay, Panc-1 cells; type: cell-based, human; details: Panc-1, morphological assay
From the text: as §1

[4] = test system: phospho-Ser473-AKT in Panc-1 cells; assay: Cellular AKT inhibition, Western blot phospho-Ser473-AKT, Panc-1 cells
[5] = Plasma levels of compound 104 (HPLC); type: in vivo, scid mice; details: single 125 mg/kg i.p. dose, between 1 and 6 h
Experimental: (§2) This observation was tested using pharmacodynamic and pharmacokinetic studies. […]. […] Western blotting was performed as described above. […].

[6] = test system: phospho-Ser473-AKT in BxPC-3; assay: Cellular AKT inhibition, Western blot phospho-Ser473-AKT, BxPC-3 cells; type: cell-based, human; details: BxPC-3 cells, Western blot
[7] = type: in vivo; details: single doses up to 250 mg/kg; preliminary studies
Experimental: as §2

HaCat-II,4 cells = assay: Apoptosis (PARP cleavage), HaCaT-II,4 cells; type: cell-based, human; details: 10 μM
From the text: (§3) Normal morphogenesis and differentiation features of skin keratinocytes are retained in the HaCaT cultures.

SKOV-3 ovarian cancer = assay: Antitumor activity, oral dosing, SKOV-3 xenograft; type: in vivo, scid mice; details: SKOV-3, oral, 250 mg/kg BID × 10 D
HaCaT cells = assay: Apoptosis (PARP cleavage), HaCaT cells; type: cell-based, human; details: 10 μM
From the text: as §3

A549 nsc lung cancer = assay: Antitumor activity, oral dosing, A549 xenograft; type: in vivo, scid mice; details: 200 mg/kg BID × 10 D
PC3 prostate cancer = assay: Antitumor activity, oral dosing, PC3 xenograft; type: in vivo, scid mice; details: 125 mg/kg BID × 5 D
[8] = test system: total AKT in scid mouse skin; assay: Topical application, total AKT immunohistochemistry in skin; type: in vivo, scid mice; details: 20 mg/ml in 0.1 ml acetone topically; between 1 and 4 hours, reappears after 24 hours
Experimental: Skin biopsies were taken and immunohistochemistry for AKT was performed on the sections. […] Staining was measured by quantitative immunohistochemistry with correction for non-specific background staining (p<0.05). Phospho-Ser^473-AKT was not detectable in dermal layer. FIG. 15C summarizes the effects of compound over a 24 hour period as determined by Western blot analysis performed as described above.

BxPC-3 pancreatic cancer = assay: Antitumor activity, oral dosing, BxPC-3 xenograft; type: in vivo, scid mice; details: BxPC-3, oral
MCF-7 breast cancer = assay: Antitumor activity, oral dosing, MCF-7 xenograft; type: in vivo, scid mice; details: MCF-7, oral
[9] = test system: phospho-Ser473-AKT in HT-29 cells; assay: Cellular AKT inhibition, Western blot phospho-Ser473-AKT, HT-29 cells; type: cell-based; details: human HT-29 colon cancer cells
Experimental: as §1
(§4) AKT activity was measured by Western blotting using anti-[…] AKT antibody. Downstream targets of AKT were detected also by Western blotting using specific anti-phospho antibodies and anti-actin was used as a loading control.

[10] = test system: phospho-Ser473 AKT in NIH3T3 cells; assay: Cellular AKT inhibition, phospho-Ser473 AKT, NIH3T3 cells; type: cell-based; details: mouse NIH3T3, phospho-Ser473 AKT
Experimental: as §4

HT-29 cells [11] = assay: Cell survival / cytotoxicity, MTT assay, HT-29 cells; type: cell-based, human; details: HT-29 cells; NI = not inhibitory; read-out: Cytotoxicity (IC50 μM)
PH domain of PDK1 = PH domain of PDK1 (Homo sapiens (Human), UniProt O15530); assay: SPR direct binding to PDK1 PH domain; details: NB = no measurable binding, read-out: PDK1 PH mKD
Experimental: (§5) Binding assays using SPR and an ELISA competitive binding assay were used to measure the binding affinity (KD) of the compounds to all three PH domains. SPR was carried out as described above. […] Purified GST-PH domains were incubated with increasing concentrations of the compounds under anylsis for about 4 hours in 0.2 M carbonate buffer pH 9.4 and were added to the 96-well plate and incubated overnight at 4° C. Following incubation, the plate was washed 4 times with phosphate buffered 0.9% NaCl (PBS), blocked with 3% bovine serum albumin (BSA) in PBS and 0.01% Tween for 1 hour, washed again 4 times with PBS and mouse monoclonal anti-glutathione-S-transferase antibody in 3% BSA (1:2000) was added for 1 hr at room temperature with shaking. The plate was washed 4 times with PBS and an anti-mouse IgG horseradish peroxidase coupled antibody (dilution 1:2000 in 3% BSA) was added for 1 hr. After 4 washes with PBS, 2,2′-azinobis[3-ethylbenzothiazoline-6-sulfonic acid]-diammonium salt (ABST) was added and the reaction was allowed to develop for 30 min.

HT-29 cells [12] = assay: Metabolic stability under cell culture conditions (incubation with HT-29 cells); type: in vitro ADME, human; details: for Metabolic half life: incubating with HT-29 cells at maximum DMEM concentration at 37° C.
From the text: Compound 6 was too insoluble to obtain data.

Solubility = type: physicochemical
[13] = test system: BXPC3 pancreatic tumor cells, MCF-7 breast tumor cells, and A549 nscl lung cancer cells; assay: Antitumor activity of alkyl chain analogs in subcutaneous xenografts (FIG. 9); type: in vivo; details: 200 mg/kg twice a day for 10 days
[14] = Pharmacokinetics of compound 316, plasma concentrations
[15] = test system: HT-29 colon cancer xenografts; assay: Antitumor activity, HT-29 colon cancer xenografts; type: in vivo, scid mice; details: orally for 5 days, daily dose 250 mg/kg
Experimental: (§6) AKT and phospo-Ser-AKT values are the mean of 4 mice and bars are S.E., *p<0.05, **p<0.01. Additionally, 24 hours after administration there was an unexpected significant decrease in the apparent total AKT concentration compared to an actin loading control.

[16] = test system: phospho-Ser-AKT in HT-29 xenograft tumors; assay: Tumor phospho-Ser-AKT in HT-29 xenografts; type: in vivo, scid mice
Experimental: as §6

IRS1 PH domain = IRS1 PH domain (Homo sapiens (Human), UniProt P35568); assay: SPR direct binding to IRS1 PH domain; details: NB = no measurable binding, read-out: IRS1 PH mKD
Experimental: as §5

AKT PH domain = AKT PH domain (Homo sapiens (Human), UniProt P31749); assay: SPR spectroscopy direct binding (Biacore 2000); details: purified AKT PH domain, SPR (Biacore 2000); NB = not binding
Experimental: as §5

[17] = Homo sapiens, PANC-1, read-out: pAKT inhibition (IC50)

PH domain of PDK1, sequence (O15530 459-550): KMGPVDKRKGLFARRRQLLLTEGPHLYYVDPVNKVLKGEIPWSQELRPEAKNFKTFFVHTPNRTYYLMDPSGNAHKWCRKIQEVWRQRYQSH
IRS1 PH domain, sequence (P35568 12-115): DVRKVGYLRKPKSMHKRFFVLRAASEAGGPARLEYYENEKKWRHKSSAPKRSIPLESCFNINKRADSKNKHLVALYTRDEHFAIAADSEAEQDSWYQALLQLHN
AKT PH domain, sequence (P31749 5-108): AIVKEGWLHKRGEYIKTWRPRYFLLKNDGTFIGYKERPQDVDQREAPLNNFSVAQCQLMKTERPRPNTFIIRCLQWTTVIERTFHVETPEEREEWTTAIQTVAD

IC50 ([2]; read-out: pAKT inhibition (IC50), MiaPaca-2, Western blots phospho-Ser473-AKT): > 50 µM | IC50 ([4]; read-out: pAKT inhibition (IC50), Panc-1, Western blots phospho-Ser473-AKT): > 50 µM
Structure (SMILES): COCCOCCOCC(=O)Nc1ccc(S(=O)(=O)Nc2nncs2)cc1 [Compound 103]
Apoptosis at 20 μmol/L [1]: 18.7 ± 3.1% | Apoptosis at 20 μmol/L [3]: 11.4 ± 0.5/ %

IC50 [9]: > 20 µM | Kd (PH domain of PDK1): 3.57 µM | Metabolic half life (HT-29 cells [12]): 1.52 h | Solubility (Solubility): 28.6 µM (≈ 14.9 µg/mL)
Structure (SMILES): CC1=NN(C(=O)c2ccc(C(C)(C)C)cc2)C(=O)C1/N=N/c1ccc(S(=O)(=O)Nc2ncccn2)cc1 (stereo not shown) [Compound 332]
IC50 [10]: > 20 µM | IC50 (HT-29 cells [11]): 25 µM

IC50 [9]: > 20 µM | Metabolic half life (HT-29 cells [12]): >8 h | stability under cell culture conditions (HT-29 cells [12]; over the time period studied): did not appear to breakdown | Kd (IRS1 PH domain): 0.14 ± 0.02 µM | Solubility (Solubility): 12.9 µM (≈ 6.17 µg/mL)
Structure (SMILES): CC1=NN(C(=O)c2ccc(N)cc2)C(=O)C1/N=N/c1ccc(S(=O)(=O)Nc2ncccn2)cc1 (stereo not shown) [Compound 333]

KD (AKT PH domain): did not appear to bind directly | IC50 ([2]; Homo sapiens, MIA PaCa-2, read-out: pAKT inhibition (IC50)): > 50 µM | IC50 [4, 17]: > 50 µM
Structure (SMILES): CC(=O)Nc1ccc(S(=O)(=O)Nc2nncs2)cc1 [Compound 102, N-(4-(N-1,3,4-Thiadiazol-2-ylsulfamoyl)phenyl)acetamide]
Apoptosis at 20 μmol/L [1]: 10.3 ± 2.1% | Apoptosis at 20 μmol/L [3]: 6.8 ± 0.9/ %

IC50 [9]: > 20 µM | Kd (PH domain of PDK1): 0.42 µM | Metabolic half life (HT-29 cells [12]): 2.3 h | Kd (IRS1 PH domain): 1.74 ± 0.41 µM | Solubility (Solubility): 13.1 µM (≈ 6.28 µg/mL)
Structure (SMILES): CC1=NN(C(=O)c2ccc(O)cc2)C(=O)C1/N=N/c1ccc(S(=O)(=O)Nc2ncccn2)cc1 (stereo not shown) [Compound 360]
IC50 [10]: 5 µM

Further lines, the molecule ahead of its results:

Structure (SMILES): CCCCCCCCCCCCc1ccc(S(=O)(=O)Nc2nncs2)cc1 [Compound 104, 4-Dodecyl-N-(1,3,4-thiadiazol-2-yl)benzenesulfonamide]
Apoptosis at 20 μmol/L [1]: 31.3 ± 1.6% | plasma concentration [5]: a peak corresponding to compound 104 was detected in the plasma | GSK3β and p70S6K phosphorylation [6]: inhibited in a dose-dependent manner | toxicity [7]: not toxic | Apoptosis at 20 μmol/L [3]: 40.0 ± 2.9/ % | apoptosis (HaCat-II,4 cells): 60% | Growth rate mm^3/10 days (SKOV-3 ovarian cancer): 122 ± 16 mm^3/10 days | T/C % (SKOV-3 ovarian cancer): 28.3% | apoptosis (HaCaT cells): 80% | Growth rate mm^3/10 days (A549 nsc lung cancer): 182 ± 47 mm^3/10 days | T/C % (A549 nsc lung cancer): 44.1% | Growth rate mm^3/10 days (PC3 prostate cancer): 470 ± 121 mm^3/10 days | T/C % (PC3 prostate cancer): 60.3% | Total Akt staining in skin [8]: decreased significantly overtime | Growth rate mm^3/10 days (BxPC-3 pancreatic cancer; 100 mg/kg BID × 10 D): 181 ± 52 mm^3/10 days | T/C % (BxPC-3 pancreatic cancer; 100 mg/kg BID × 10 D): 64.8% | Growth rate mm^3/10 days (BxPC-3 pancreatic cancer; 125 mg/kg BID × 5 D): 67 ± 35 mm^3/10 days | T/C % (BxPC-3 pancreatic cancer; 125 mg/kg BID × 5 D): 29.4% | Growth rate mm^3/10 days (BxPC-3 pancreatic cancer; 200 mg/kg BID × 10 D): 77 ± 44 mm^3/10 days | T/C % (BxPC-3 pancreatic cancer; 200 mg/kg BID × 10 D): 27.6% | Growth rate mm^3/10 days (BxPC-3 pancreatic cancer; 250 mg/kg BID × 5 D): 46 ± 53 mm^3/10 days | T/C % (BxPC-3 pancreatic cancer; 250 mg/kg BID × 5 D): 20.1% | Growth rate mm^3/10 days (MCF-7 breast cancer; 100 mg/kg BID × 10 D): 383 ± 139 mm^3/10 days | T/C % (MCF-7 breast cancer; 100 mg/kg BID × 10 D): 93.4% | Growth rate mm^3/10 days (MCF-7 breast cancer; 200 mg/kg BID × 10 D): 156 ± 30 mm^3/10 days | T/C % (MCF-7 breast cancer; 200 mg/kg BID × 10 D): 38.0%

Structure (SMILES): CCCCc1ccc(S(=O)(=O)Nc2nncs2)cc1 [Compound 155, 4-Butyl-N-(1,3,4-thiadiazol-2-yl)benzenesulfonamide]
antitumor activity [13]: inactive

Structure (SMILES): CCCCCCCCCC(=O)Nc1ccc(S(=O)(=O)Nc2nncs2)cc1 [Compound 101, N-(4-(N-1,3,4-Thiadiazol-2-ylsulfamoyl)phenyl)decanamide]
IC50 [4, 17]: 10 µM

Structure (SMILES): CC1=NN(C(=O)c2ccc(Cl)cc2)C(=O)C1/N=N/c1ccc(S(=O)(=O)Nc2ncccn2)cc1 (stereo not shown) [Compound 316, (E)-4-((1-(4-chlorobenzoyl)-3-methyl-5-oxo-4,5-dihydro-1H-pyrazol-4-yl)diazenyl)-N-(pyrimidin-2-yl)benzenesulfonamide]
IC50 [9]: 13 µM | IC50 [10]: 4 µM | elimination ([14]; 250 mg/kg): eliminated relatively rapidly over about a 24 hr period | peak plasma concentration ([14]; single dose 250 mg/kg i.p.): 1.4 µM | peak plasma concentration ([14]; single dose 250 mg/kg oral): 0.6 µM | antitumor activity [15]: no activity | toxicity, repeated dose (Toxicity of compound 316; five daily doses of 250 mg/kg i.p.): moderate neutropenia but no other sign of toxicity | toxicity, single dose (Toxicity of compound 316; single dose of up to 250 mg/kg, preliminary studies): no toxicity | tumor phospho-Ser-AKT ([16]; 4 hours after a single 250 mg/kg dose): inhibition of tumor phospho-Ser-AKT was observed | tumor phospho-Ser-AKT ([16]; 24 hours after a single 250 mg/kg dose): appears to lost
